Laboratory results: PMC11823609, “Advancements in the fight against globally distributed OXA-48 carbapenemase: evaluating the new generation of carbapenemase inhibitors” (Antimicrobial Agents and Chemotherapy, 2025)
In brackets after ≈: the same amount, converted by molar mass.

Columns and labels:
E. coli TG1 (OXA-48) = test: microbe, parasite or virus in culture; type: cell-based, Escherichia coli; conditions: Escherichia coli
Protocol: (§1) The MICs of each of the individual compounds (antibiotics or inhibitors) were also determined. The MICs were determined for the E. coli isogenic expressing OXA-48 (and both OXA-48 and CTX-M-14) to assess their activity against the carbapenemase; MICs were also determined for the 18 Enterobacterales clinical isolates in order to evaluate the new inhibitors against also their resistance concomitant mechanisms. The MICs were determined in triplicate experiments, and the EUCAST 13.0 clinical breakpoints were followed (http://www.eucast.org/clinical_breakpoints).
(§2) For comparative evaluation of the activity of each inhibitor alone against the carbapenemase OXA-48, all inhibitors (at 4 mg/L) were tested in the presence of a carbapenem (ertapenem, adequate substrate) and a cephalosporin (ceftazidime, poor substrate) as reporter substrates. This prevented any possible masking effect produced by the different partner antibiotics. These assays were also performed with isogenic transformants and clinical isolates.

[1] = system: K. pneumoniae strain 125 (MLST 307, ESBL); test: microbe, parasite or virus in culture; type: cell-based; conditions: Klebsiella pneumoniae
Protocol: (§3) The efficacy of these new BLIs was also evaluated against 18 genetically diverse WGS-characterized collection of OXA-48-positive Enterobacterales recovered as part of the Carbapenem-resistant Enterobacterales Genome Database Project (https://genomes.cnag.cat/incredble) listed in Table S2 ([13]). Combinations of clinical isolates (five pairs of Klebsiella pneumoniae, two pairs of Enterobacter cloacae, and two pairs of E. coli) were chosen for analysis: (i) nine strains carrying ESBLs; and (ii) nine strains (genetically closer available strains) without ESBLs.
as §1, §2

[2] = system: E. cloacae strain 281 (MLST 78, No ESBL); test: microbe, parasite or virus in culture; type: cell-based; conditions: Enterobacter cloacae; E. cloacae 281; β-lactamase inhibitor alone; read-out: MIC
Protocol: as §3, §1, §2

[3] = system: K. pneumoniae strain 237 (MLST 147, No ESBL); test: microbe, parasite or virus in culture; type: cell-based; conditions: Klebsiella pneumoniae; K. pneumoniae 237; β-lactamase inhibitor alone; read-out: MIC
Protocol: as §3, §1, §2

[4] = system: E. cloacae strain 235 (MLST 171, ESBL); test: microbe, parasite or virus in culture; type: cell-based; conditions: Enterobacter cloacae
Protocol: as §3, §1, §2

[5] = system: E. coli strain 264 (MLST 131, No ESBL); test: microbe, parasite or virus in culture; type: cell-based; conditions: Escherichia coli; E. coli 264; β-lactamase inhibitor alone; read-out: MIC
Protocol: as §3, §1, §2

[6] = system: K. pneumoniae strain 71 (MLST 15, No ESBL); test: microbe, parasite or virus in culture; type: cell-based; conditions: Klebsiella pneumoniae; K. pneumoniae 71; β-lactamase inhibitor alone; read-out: MIC
Protocol: as §3, §1, §2

[7] = system: K. pneumoniae strain 19 (MLST 11, ESBL); test: microbe, parasite or virus in culture; type: cell-based; conditions: Klebsiella pneumoniae
Protocol: as §3, §1, §2

[8] = system: K. pneumoniae strain 497 (MLST 11, No ESBL); test: microbe, parasite or virus in culture; type: cell-based; conditions: Klebsiella pneumoniae; K. pneumoniae 497; β-lactamase inhibitor alone; read-out: MIC
Protocol: as §3, §1, §2

[9] = system: E. coli strain 177 (MLST 131, ESBL); test: microbe, parasite or virus in culture; type: cell-based; conditions: Escherichia coli
Protocol: as §3, §1, §2

[10] = system: E. coli strain 103 (MLST 10, ESBL); test: microbe, parasite or virus in culture; type: cell-based; conditions: Escherichia coli
Protocol: as §3, §1, §2

[11] = system: K. pneumoniae strain 238 (MLST 15, ESBL); test: microbe, parasite or virus in culture; type: cell-based; conditions: Klebsiella pneumoniae
Protocol: as §3, §1, §2

[12] = system: E. cloacae strain 272 (MLST 78, ESBL); test: microbe, parasite or virus in culture; type: cell-based; conditions: Enterobacter cloacae
Protocol: as §3, §1, §2

[13] = system: K. pneumoniae strain 23 (MLST 392, ESBL); test: microbe, parasite or virus in culture; type: cell-based; conditions: Klebsiella pneumoniae
Protocol: as §3, §1, §2

[14] = system: K. pneumoniae strain 170 (MLST 307, No ESBL); test: microbe, parasite or virus in culture; type: cell-based; conditions: Klebsiella pneumoniae; K. pneumoniae 170; β-lactamase inhibitor alone; read-out: MIC
Protocol: as §3, §1, §2

[15] = system: E. coli strain 224 (MLST 127, No ESBL); test: microbe, parasite or virus in culture; type: cell-based; conditions: Escherichia coli; E. coli 224; β-lactamase inhibitor alone; read-out: MIC
Protocol: as §3, §1, §2

[16] = system: E. cloacae strain 231 (MLST 171, No ESBL); test: microbe, parasite or virus in culture; type: cell-based; conditions: Enterobacter cloacae; E. cloacae 231; β-lactamase inhibitor alone; read-out: MIC
Protocol: as §3, §1, §2

[17] = system: K. pneumoniae strain 194 (MLST 392, No ESBL); test: microbe, parasite or virus in culture; type: cell-based; conditions: Klebsiella pneumoniae; K. pneumoniae 194; β-lactamase inhibitor alone; read-out: MIC
Protocol: as §3, §1, §2

[18] = system: K. pneumoniae strain 413 (MLST 147, ESBL); test: microbe, parasite or virus in culture; type: cell-based; conditions: Klebsiella pneumoniae
Protocol: as §3, §1, §2

OXA-48 = OXA-48 (Klebsiella pneumoniae, UniProt Q6XEC0); conditions: ref 26 Lahiri et al.; cited from earlier work
Chain of OXA-48 (Q6XEC0 23-265 limits assumed): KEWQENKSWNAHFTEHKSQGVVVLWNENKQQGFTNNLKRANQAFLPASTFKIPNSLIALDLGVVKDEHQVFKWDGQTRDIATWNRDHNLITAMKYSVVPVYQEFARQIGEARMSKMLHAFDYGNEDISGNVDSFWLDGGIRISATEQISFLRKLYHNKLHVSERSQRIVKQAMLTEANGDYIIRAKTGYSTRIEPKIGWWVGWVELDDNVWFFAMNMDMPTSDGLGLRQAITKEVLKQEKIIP

E. coli TG1 = test: microbe, parasite or virus in culture; type: cell-based; conditions: Escherichia coli, β-lactamase inhibitor alone
Protocol: as §1, §2

[19] = system: E. coli HB4 ΔompC/F (CTX-M-14); test: microbe, parasite or virus in culture; type: cell-based, Escherichia coli; conditions: Escherichia coli
Description: (§4) The E. coli HB4 strain was used to gain a more complete perspective, by evaluating the involvement in resistance of a low permeability background with the carbapenemase OXA-48, as well as coproduction of an ESBL and the carbapenemase; thus, the ESBL CTX-M-14 and OXA-48 were cloned together and separately into E. coli HB4. The characteristics of these strains and transformants are summarized in Table S1, and the cloning procedures are outlined in the supplemental methods.
as §1, §2

[20] = system: E. coli HB4 ΔompC/F (CTX-M-14 + OXA-48); test: microbe, parasite or virus in culture; type: cell-based, Escherichia coli; conditions: for MIC: Escherichia coli
Description: as §4, §1, §2

E. coli HB4 ΔompC/F = test: microbe, parasite or virus in culture; type: cell-based, Escherichia coli; conditions: Escherichia coli
Description: as §4, §1, §2

[21] = system: E. coli HB4 ΔompC/F (OXA-48); test: microbe, parasite or virus in culture; type: cell-based, Escherichia coli; conditions: Escherichia coli
Description: as §4, §1, §2

[22] = system: E. coli TG1 and HB4 transformants; test: MIC summary over E. coli transformants; type: cell-based, Escherichia coli
Description: as §4, §1, §2

[23] = system: OXA-48-producing Enterobacterales clinical isolates; test: MIC summary over clinical isolates; type: cell-based; conditions: clinical isolates
Protocol: as §3, §1, §2

[24] = system: O=C(Cc1cccs1)N[C@@H]1C(=O)N2C(C(=O)O)=C(/C=C/c3ccc([N+](=O)[O-])cc3[N+](=O)[O-])CS[C@H]12; test: purified protein, by the assay type; conditions: other: substrate hydrolysis by OXA-48; pH 7.4; 25.0 °C
[25] = OXA-48-producing E. coli hosts, BLI 4 mg/L

In the case of `NC(=O)[C@@H]1CC[C@@H]2CN1C(=O)N2OS(=O)(=O)O` [Avibactam, avibactam], the MIC (E. coli TG1 (OXA-48)) is reported as 4 µg/mL (≈ 15.1 µM), the MIC [1] is reported as 32 µg/mL and the MIC [2] is reported as 16 µg/mL. It also gave an MIC [3] of 64 µg/mL, an MIC [4] of 32 µg/mL and an MIC [5] of 16 µg/mL. It also gave an MIC [6] of 32 µg/mL, an MIC [7] of at least 128 µg/mL and an MIC [8] of at least 128 µg/mL. For the same compound, the MIC [9] was 32 µg/mL, the MIC [10] was 32 µg/mL and the MIC [11] was 32 µg/mL. For the same compound, the MIC [12] was 32 µg/mL, the MIC [13] was 16 µg/mL and the MIC [14] was 16 µg/mL. The MIC [15] was 16 µg/mL, the MIC [16] was 8 µg/mL and the MIC [17] was 16 µg/mL. For the same compound, the MIC [18] was 64 µg/mL, the t1/2 (OXA-48) was 1,000 min and the MIC (E. coli TG1) was 4 µg/mL (≈ 15.1 µM). The MIC [19] was 16 µg/mL (≈ 60.3 µM), the “decrease of ertapenem MIC with BLI” value ([20]; E. coli HB4 coproducing CTX-M-14 and OXA-48, BLI 4 mg/L) was 256 fold and the MIC [20] was 16 µg/mL (≈ 60.3 µM). The MIC (E. coli HB4 ΔompC/F) was 8 µg/mL (≈ 30.2 µM), the MIC [21] was 8 µg/mL (≈ 30.2 µM) and the “decrease of ertapenem MIC with BLI” value [22, 25] was 8–256 fold.

`O=C(NNC(=O)[C@@H]1CC[C@@H]2CN1C(=O)N2OS(=O)(=O)O)[C@@H]1CCCNC1` [Zidebactam, zidebactam] gave an MIC (E. coli TG1 (OXA-48)) of 0.12 µg/mL (≈ 0.307 µM), an MIC [1] of at least 128 µg/mL and an MIC [2] of 0.25 µg/mL. It also gave an MIC [3] of 0.5 µg/mL, an MIC [4] of 2 µg/mL and an MIC [5] of 0.12 µg/mL. For the same compound, the MIC [6] was 0.5 µg/mL, the MIC [7] was at least 128 µg/mL and the MIC [8] was 32 µg/mL. The MIC [9] was 0.5 µg/mL, the MIC [10] was 8 µg/mL and the MIC [11] was 0.25 µg/mL. For the same compound, the MIC [12] was 0.5 µg/mL, the MIC [13] was 0.5 µg/mL and the MIC [14] was 0.5 µg/mL. It also gave an MIC [15] of 0.25 µg/mL, an MIC [16] of 0.25 µg/mL and an MIC [17] of 0.5 µg/mL. For the same compound, the MIC [18] was at least 128 µg/mL, the MIC (E. coli TG1) was 0.12 µg/mL (≈ 0.307 µM) and the MIC [19] was 0.5 µg/mL (≈ 1.28 µM). It also gave an MIC [20] of 0.5 µg/mL (≈ 1.28 µM), an MIC (E. coli HB4 ΔompC/F) of 0.5 µg/mL (≈ 1.28 µM) and an MIC [21] of 0.5 µg/mL (≈ 1.28 µM). The “reduction of cefepime MICs by BLI” value [23] was 2–512 fold, the “effect of ertapenem/BLI on bacterial growth” value [22, 25] was “totally inhibited bacterial growth” and the “MICs of inhibitor alone (range over strains)” value ([22]; TG1 and HB4 E. coli) was 0.12 to 2 mg/L.

With OXA-48 (Klebsiella pneumoniae) the Km [24] was 56.5 µM, the kcat [24] was 171.4 s⁻¹ and the kcat/Km [24] was 3.05e+06 M⁻¹ s⁻¹.
